# Where a name gives a salt, the structure may show the parent alone. Read-outs that look alike come from different tables or passages of the source.
# How the values were obtained:
# [1] = target: T1, GHS1A-receptor (Homo sapiens, UniProt Q92847); test: Ghrelin-agonism in HEK293 cells (intracellular calcium, FLIPR); type: cell-based; settings: HEK293 cells permanently transfected with GHS1A-receptor, calcium fluorescence (fluo-4 or Kit-3), EC50 in M, read-out: pEC50 (converted)
# T1 construct: expressed in transfected cells; host or cells: HEK293
# T1 sequence (Q92847 whole entry): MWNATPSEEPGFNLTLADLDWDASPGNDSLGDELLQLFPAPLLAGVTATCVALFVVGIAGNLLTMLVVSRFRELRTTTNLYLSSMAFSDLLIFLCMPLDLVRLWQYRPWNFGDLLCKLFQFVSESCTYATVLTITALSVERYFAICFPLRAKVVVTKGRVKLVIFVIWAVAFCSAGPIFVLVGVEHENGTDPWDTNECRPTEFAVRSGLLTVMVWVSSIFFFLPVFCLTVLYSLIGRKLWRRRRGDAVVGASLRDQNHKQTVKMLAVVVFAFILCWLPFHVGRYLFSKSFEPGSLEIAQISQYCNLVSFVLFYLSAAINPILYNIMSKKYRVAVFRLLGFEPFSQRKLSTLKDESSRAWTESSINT
# Procedure: One day before the experiment, HEK293 cells, permanently transfected with the gene sequence for expression of the GHS1A-receptor, were seeded in poly-D-Lysine coated 96-well plates with clear bottom, and allowed to grow to […] of confluence on the next day.
# Then, cells were incubated with the calcium-sensitive intracellular fluorescent probe fluo-4 or Kit-3 for 1 h at 37° C. Fluorescence representing free intracellular calcium in the cells was measured in a FLIPR-system (excitation at 488 nm, emission>520 nm). Test compounds were added to each well at the desired concentration and the fluorescence signal was simultaneously recorded in all wells. Release of intracellular calcium triggered by activation of the receptors upon addition of the test compound was measured as the fluorescence emitted from the complex of calcium and the fluorescent probe. The drug effect on fluorescence intensity was expressed relative to the maximal fluorescence intensity measured in cells exposed to the calcium-ionophore ionomycin.
# [2] = tested on: NMRI-mice; test: Acceleration of gastric emptying and small intestinal propulsion in NMRI-mice; type: in vivo; settings: lowest active dose, subcutaneous, 30 min before phenol red test meal; for minimal effective dose: Mus musculus, sc
# Procedure: Male NMRI-mice weighing around 25 gram were fasted for 20 h and had free access to drinking water. Test compounds were administered to the animals by subcutaneous route 30 min before they were given a test meal by oral gavage. The test meal consisted of 0.3 ml of a chocolate nutridrink solution (1.0 kcal/ml) containing phenol red marker (5 mg/ml). Fifteen min after administration of the meal, the mice were sacrificed by CO2 gas inhalation. The phenol red content remaining in the stomach (extracted from the stomach with NaOH) was determined at 557 nm in a spectrophotometer and expressed as extinction units. Small intestinal propulsion was determined as the distance traveled by the phenol red marker through the intestine and expressed as a percentage of total small intestinal length (from the pylorus to the ileo-cecal junction).
# The lowest dose that was active for each parameter was noted as the lowest active dose (LAD). Table 12 discloses LAD values.
# [3] = active when >60% of animals had phenol red front beyond 85% of small intestinal length, read-out: LAD (mg/kg) Small intestinal propulsion
# [4] = stomach content 15 min after meal, active when >60% of animals below 0.9 extinction units, read-out: LAD (mg/kg) Gastric emptying
EC50 [1] [µM],Compound,further results
0.158,CCN(CC)CCCC1(O)c2ccccc2CCCC1c1ccc(OC)cc1 (racemic) [Compound 67],"minimal effective dose [2, 3]: > 10 mg/kg; minimal effective dose [2, 4]: > 10 mg/kg"
2,COCCN(C)CCCC1(O)c2ccccc2CCCC1c1ccc(O)cc1 (racemic) [Compound 37],–
0.126,COCCN(C)CCCC1(O)c2ccccc2CCCC1c1ccc(F)cc1F (racemic) [Compound 58],"minimal effective dose [2, 3]: > 10 mg/kg; minimal effective dose [2, 4]: > 10 mg/kg"
0.794,CNCCCC1(O)c2ccccc2CCCC1c1ccc(OC)cc1 (racemic) [Compound 65],–
0.0316,CN(C)CCCC1(O)c2ccccc2OCCC1c1ccc(Cl)cc1 (racemic) [Compound 94],"minimal effective dose [2, 3]: 2.5 mg/kg; minimal effective dose [2, 4]: 10 mg/kg"
1,OC1CCN(CCCC2(O)c3ccccc3CCCC2c2ccc3c(c2)OCO3)C1 (racemic) [Compound 91],–
0.0158,COCCN(C)CCCC1(O)c2ccccc2CCCC1c1ccc(Cl)c(OC)c1 (racemic) [Compound 75],–
0.251,Cc1ccc([C@H]2CCOc3ccccc3[C@]2(O)CCCN(C)Cc2ccccc2)cc1 (racemic) [Compound 10],–
0.0251,CCN(CC)CCCC1(O)c2ccccc2CCCC1c1ccc(C)cc1 (racemic) [Compound 31],–
0.0158,"CN(C)CCCC1(O)c2ccccc2CCCC1c1ccccc1 (single isomer, unassigned) [Compound 105]","minimal effective dose [2, 3]: > 10 mg/kg; minimal effective dose [2, 4]: 10 mg/kg"
0.00501,CCN(CC)CCCC1(O)c2ccccc2CCCC1c1ccc(Cl)c(OC)c1 (racemic) [Compound 74],"minimal effective dose [2, 3]: > 40 mg/kg; minimal effective dose [2, 4]: > 40 mg/kg"
1.58,CN(CCCC1(O)c2ccccc2CCCC1c1cnc2ccccc2c1)Cc1ccccc1 (racemic) [Compound 87],–
0.316,CN(C)CCC[C@@]1(O)c2ccccc2OCC[C@@H]1c1ccccc1 (relative stereo) [Compound 8],–
0.2,CNCCCC1(O)c2ccccc2CCCC1c1ccccc1 (racemic) [Compound 19],"minimal effective dose [2, 3]: > 10 mg/kg; minimal effective dose [2, 4]: > 10 mg/kg"
0.0631,COCCN(C)CCCC1(O)c2ccccc2CCCC1c1ccc(F)cc1 (racemic) [Compound 54],"minimal effective dose [2, 3]: > 40 mg/kg; minimal effective dose [2, 4]: > 40 mg/kg"
1.26,COCCN(C)CCCC1(O)c2ccccc2CCCC1c1ccc(OC)cc1 (racemic) [Compound 70],–
0.251,COc1ccc(C2CCCc3ccccc3C2(O)CCCN(C)C)cc1 (racemic) [Compound 66],"minimal effective dose [2, 3]: 10 mg/kg; minimal effective dose [2, 4]: > 10 mg/kg"
> 10,COc1ccc(C2CCCc3ccccc3C2(O)CCCN(C)Cc2ccccc2)cc1 (racemic) [Compound 69],–
0.0631,Cc1ccc(C2CCOc3ccccc3C2(O)CCCN(C)C)cc1 (racemic) [Compound 92],"minimal effective dose [2, 3]: > 10 mg/kg; minimal effective dose [2, 4]: > 10 mg/kg"
0.01,COc1cc(C2CCCc3ccccc3C2(O)CCCN(C)C)ccc1Cl (racemic) [Compound 72],"minimal effective dose [2, 3]: > 10 mg/kg; minimal effective dose [2, 4]: > 10 mg/kg"

EC50 [1] [µM],Compound,further results
3.98,CC(=O)N1CCN(CCCC2(O)c3ccccc3CCCC2c2ccc(F)cc2F)CC1 (racemic) [Compound 60],"minimal effective dose [2, 3]: 10 mg/kg; minimal effective dose [2, 4]: > 10 mg/kg"
> 10,OC1(CCCN2CCCCC2)c2ccccc2CCCC1c1ccc(F)cc1F (racemic) [Compound 59],–
3.98,Cc1cccc(C2CCCc3ccccc3C2(O)CCCN(C)Cc2ccccc2)c1 (racemic) [Compound 24],–
0.126,CNCCCC1(O)c2ccccc2CCCC1c1ccc(Cl)cc1 (racemic) [Compound 43],"minimal effective dose [2, 3]: > 10 mg/kg; minimal effective dose [2, 4]: > 10 mg/kg"
0.501,CCNCCCC1(O)c2ccccc2CCCC1c1ccc(Cl)cc1 (racemic) [Compound 44],–
0.794,CC(C)NCCCC1(O)c2ccccc2CCCC1c1ccc(Cl)cc1 (racemic) [Compound 45],–
2,"CN(C)CCCC1(O)c2ccccc2CCCC1c1ccccc1 (single isomer, unassigned) [Compound 104]",–
0.0398,CCN(CC)CCCC1(O)c2ccccc2CCCC1c1ccc2c(c1)OCO2 (racemic) [Compound 89],"minimal effective dose [2, 3]: > 10 mg/kg; minimal effective dose [2, 4]: > 10 mg/kg"
0.01,CCN(CC)CCCC1(O)c2ccccc2OCCC1c1ccc(Cl)c(OC)c1 (racemic) [Compound 98],"minimal effective dose [2, 3]: 10 mg/kg; minimal effective dose [2, 4]: 10 mg/kg"
0.794,Cc1ccc([C@H]2CCOc3ccccc3[C@]2(O)CCCN(C)C)cn1 (racemic) [Compound 9],–
0.398,CNCCC[C@@]1(O)c2ccccc2OCC[C@@H]1c1ccc(C)cc1 [Compound 11],"minimal effective dose [2, 3]: > 10 mg/kg; minimal effective dose [2, 4]: > 10 mg/kg"
1.58,CO[C@]1(CCCN(C)C)c2ccccc2CCC[C@@H]1c1ccc(Cl)cc1 (racemic) [Compound 15],–
0.251,"Cc1ccc([C@H]2CCCc3ccccc3[C@]2(O)CCCN(C)C)cn1 (racemic) [Compound 16, (±)cis-5-(3-Dimethylamino-propyl)-6-(6-methyl-pyridin-3-yl)-6,7,8,9-tetrahydro-5H-benzocyclohepten-5-ol hydrochloride]","minimal effective dose [2, 3]: > 10 mg/kg; minimal effective dose [2, 4]: 10 mg/kg"
–,GHRP-6 [reference compound],"LAD (mg/kg) Small intestinal propulsion ([2]; active when >60% of animals had phenol red front beyond 85% of small intestinal length): 2.5 mg/kg; LAD (mg/kg) Gastric emptying ([2]; stomach content 15 min after meal, active when >60% of animals below 0.9 extinction units): 0.63 mg/kg"
0.01,"CN(C)CCCC1(O)c2ccccc2CCCC1c1ccc(Cl)cc1 (single isomer, unassigned) [Compound 6]",–
6.31,CCN(CC)CCCC1(O)c2ccccc2OCCC1c1ccc(OC)nc1 (racemic) [Compound 103],–
3.98,COc1cncc(C2CCOc3ccccc3C2(O)CCCN(C)C)c1 (racemic) [Compound 100],–
0.0251,CCN(CC)CCCC1(O)c2ccccc2CCCC1c1cccc(OC)c1 (racemic) [Compound 61],–
0.0316,COCCN(C)CCCC1(O)c2ccccc2CCCC1c1cccc(C)c1 (racemic) [Compound 23],–
5.01,CN(CCCC1(O)c2ccccc2CCCC1c1ccc(Cl)cc1)Cc1ccccc1 (racemic) [Compound 47],–

EC50 [1] [µM],Compound,further results
2,CCN(CC)CCCC1(O)c2ccccc2OCCC1c1cncc(OC)c1 (racemic) [Compound 101],–
2,COCCN(C)CCCC1(O)c2ccccc2CCCC1c1ccc(OC)c(OC)c1 (racemic) [Compound 79],–
1.58,CN1CCN(CCCC2(O)c3ccccc3CCCC2c2ccc(F)cc2)CC1 (racemic) [Compound 55],–
3.16,CC(=O)N1CCN(CCCC2(O)c3ccccc3CCCC2c2cccc(C)c2)CC1 (racemic) [Compound 26],–
1.58,Cc1cccc(C2CCCc3ccccc3C2(O)CCCN2CCOCC2)c1 (racemic) [Compound 25],–
2.51,COc1cccc(C2CCCc3ccccc3C2(O)CCCN(C)Cc2ccccc2)c1 (racemic) [Compound 62],–
0.0794,OC1CCN(CCCC2(O)c3ccccc3CCCC2c2ccc(Cl)cc2)C1 (racemic) [Compound 49],–
> 31.6,COc1ccc(C2CCCc3ccccc3C2(O)CCCNCc2ccccc2)cc1 (racemic) [Compound 68],–
3.16,Cc1ccc(C2CCCc3ccccc3C2(O)CCCN2CCN(C)CC2)cc1 (racemic) [Compound 33],–
1,"CN(C)CCCC1(O)c2ccccc2CCCC1c1ccc(Cl)cc1 (single isomer, unassigned) [Compound 5]",–
1.58,OC1(CCCN2CCNCC2)c2ccccc2CCCC1c1ccc(Cl)cc1 (racemic) [Compound 51],–
1.58,CNCCCC1(O)c2ccccc2CCCC1c1ccc(OC)c(OC)c1 (racemic) [Compound 76],–
0.794,OC1(CCCN2CCCCC2)c2ccccc2CCCC1c1ccc(Cl)cc1 (racemic) [Compound 50],–
1,Cc1ccc(C2CCCc3ccccc3C2(O)CCCN2CCCCC2)cc1 (racemic) [Compound 32],–
0.794,COc1ccc(C2CCCc3ccccc3C2(O)CCCN(C)C)cc1OC (racemic) [Compound 77],–
0.158,COCCN(C)CCCC1(O)c2ccccc2CCCC1c1ccc2c(c1)OCO2 (racemic) [Compound 90],–
25.1,COc1ccc(C2CCCc3ccccc3C2(O)CCCN)cc1 (racemic) [Compound 64],–
> 10,Oc1ccc([C@H]2CCCc3ccccc3[C@]2(O)CCCN2CCOCC2)cc1 (racemic) [Compound 7],–

# — patent US9040725B2, “Benzocycloheptane and benzoxepine derivatives” (Janssen Pharmaceutica NV, priority 2008, dated 2015)
